The record followed here is patent publication US4740233A, “Substituted 1,2,4-triazolo[1,5-a]-pyrimidine-2-sulfonamides and compositions and methods of controlling undesired vegetation and suppressing the nitrification of ammonium nitrogen in soil” (The Dow Chemical Company, priority 1986, dated 1988).

Test [1] deals with annual sugar beet variety (SLC03). As to the kind of experiment: Plant growth regulator activity, preemergence. It is filed as in vivo. To be noted: for minimal effective concentration: Beta vulgaris, pre-emergence, 6-7 weeks, read-out: Bolting Inhibition (preemergence), concentration with observed effect; for observed effect (preemergence): 400 ppm. From the text: (§1) Using a regular biennial variety, even a bolting-susceptible variety would require a cold treatment of around 10-16 weeks plus a hormone treatement in conjunction with specific light intensities. Thus, for a screening organism, we selected one which would consistently produce bolting on a regular schedule. The screen is run with an annual sugar beet variety (SLC03) provided by Dr. Richard J. Hecker, Fort Collins, Colo. This variety is an inbred which bolts in the 6- to 8-leaf stage without any need for vernalization. This allows the screen to be run entirely in the greenhouse with all 110 chemical compounds tested on one tray. The sugarbeets are grown in 3×3 inch square pots in a greenhouse sandy loam potting mix. The sugarbeets are sprayed with test compounds when they are 2 to 3 weeks old (2 true leaves). The compounds are dissolved in acetone and diluted with water containing Tween 20 as a wetting agent. The concentration of acetone in the final spray is 20% and the concentration of Tween 20 is 0.05 percent. The plants are examined for the appearance of a bolt 4 weeks after spraying.
Preemergence tests are conducted by spraying formulated chemical on seeds placed on potting soil. The sprayed seeds are then covered with 1/4 inch of potting soil and the pots are watered. Bolting is evaluated 6-7 weeks after the initiation of the test. At this time untreated plants have a vigorous bolting stem with visible flowers.

Test [2] relates to nitrification of ammonium nitrogen. As to the kind of experiment: Suppression of nitrification of ammonium nitrogen in soil. As to conditions: 27° C. Put shortly: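 Value is % NH4-N remaining after a two-week, 27° C incubation of treated soil held at 1/3 bar tension moisture. Nitrate was measured with an ion-selective electrode after extraction with ammonium sulfate solution and 10 min shaking.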

For test [3], the system named is annual sugar beet variety (SLC03). As to the kind of experiment: Plant growth regulator activity, postemergence. It is filed as in vivo. To be noted: Beta vulgaris, post-emergence, 672 h, 4 weeks after spraying; read-out: Bolting Inhibition (postemergence), concentration with observed effect.
Excerpt: as §1

For another test, the system named is cotton. As to the kind of experiment: Postemergent control of plant species. It is filed as in vivo, Gossypium spp. To be noted: Gossypium hirsutum, post-emergence, 336 h, read-out: percent postemergent control. Put shortly: (§2)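 Compounds were taken up in acetone at twice the final concentration, then diluted with an equal volume of water containing 0.1% surfactant and sprayed onto greenhouse-grown plants at the 2-4 leaf stage. Plants were kept about two weeks under growth conditions; control is growth reduction relative to untreated plants of the same species.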

Another test deals with rape. In words: Postemergent control of plant species. As to conditions: Brassica napus, post-emergence, 336 h, read-out: percent postemergent control. Type of test: in vivo, Brassica napus. Put shortly:
as §2

In the next test the test system is soybean. In words: Postemergent control of plant species. Type of test: in vivo, Glycine max. To be noted: Glycine max, post-emergence, 336 h, read-out: percent postemergent control. Put shortly:
as §2

Another test relates to sugar beet. In words: Postemergent control of plant species. It is filed as in vivo, Beta saccharifera. To be noted: Beta vulgaris, post-emergence, 336 h, read-out: percent postemergent control. Put shortly:
as §2

A further test concerns cocklebur. As to the kind of experiment: Postemergent control of plant species. Type of test: in vivo, Xanthium spp. To be noted: Xanthium strumarium, post-emergence, 336 h, read-out: percent postemergent control. An outline of the steps: as §2
The next test deals with jimsonweed. In words: Postemergent control of plant species. Type of test: in vivo, Datura stramonium. As to conditions: Datura stramonium, post-emergence, 336 h, read-out: percent postemergent control. An outline of the steps: as §2
For another test, the system named is annual morning glory. As to the kind of experiment: Postemergent control of plant species. To be noted: Ipomoea, post-emergence, 336 h, read-out: percent postemergent control. It is filed as in vivo, Ipomoea spp. An outline of the steps: as §2
Another test concerns pigweed. In words: Postemergent control of plant species. It is filed as in vivo, Amaranthus spp. As to conditions: Amaranthus retroflexus, post-emergence, 336 h, read-out: percent postemergent control. An outline of the steps: as §2
In another test the test system is velvetleaf. As to the kind of experiment: Postemergent control of plant species. Type of test: in vivo, Abutilon theophrasti. To be noted: Abutilon theophrasti, post-emergence, 336 h, read-out: percent postemergent control. Put shortly: as §2
The subject of a further test is corn. As to the kind of experiment: Postemergent control of plant species. Type of test: in vivo, Zea mays. As to conditions: Zea mays, post-emergence, 336 h, read-out: percent postemergent control. Put shortly:
as §2

In a further test the test system is rice. As to the kind of experiment: Postemergent control of plant species. It is filed as in vivo, Oryza sativa. As to conditions: Oryza sativa, post-emergence, 336 h, read-out: percent postemergent control. Put shortly:
as §2

A further test has as its system sorghum. In words: Postemergent control of plant species. Type of test: in vivo, Sorghum vulgare. As to conditions: Sorghum, post-emergence, 336 h, read-out: percent postemergent control. Put shortly: as §2
In the next test the test system is wheat. As to the kind of experiment: Postemergent control of plant species. It is filed as in vivo, Triticum aestivum. To be noted: Triticum aestivum, post-emergence, 336 h, read-out: percent postemergent control. An outline of the steps:
as §2

The subject of a further test is barnyardgrass. As to the kind of experiment: Postemergent control of plant species. Type of test: in vivo, Echinochloa crusgalli. To be noted: Echinochloa crus-galli, post-emergence, 336 h, read-out: percent postemergent control. Put shortly: as §2
The test system of the next test is crabgrass. In words: Postemergent control of plant species. Type of test: in vivo, Digitaria spp. To be noted: Digitaria sanguinalis, post-emergence, 336 h, read-out: percent postemergent control. An outline of the steps:
as §2

In the next test the test system is yellow foxtail. In words: Postemergent control of plant species. It is filed as in vivo, Setaria lutescens. To be noted: Setaria, post-emergence, 336 h, read-out: percent postemergent control. An outline of the steps: as §2
The test system of a further test is johnson grass. In words: Postemergent control of plant species. To be noted: Sorghum halepense, post-emergence, 336 h, read-out: percent postemergent control. Type of test: in vivo, Sorghum halepense. Put shortly: as §2
The subject of another test is wild oats. In words: Postemergent control of plant species. It is filed as in vivo, Avena fatua. To be noted: Avena fatua, post-emergence, 336 h, read-out: percent postemergent control. An outline of the steps: as §2
The next test has as its system yellow nutsedge. As to the kind of experiment: Postemergent control of plant species. Type of test: in vivo, Cyperus esculentus. As to conditions: Cyperus, post-emergence, 336 h, read-out: percent postemergent control. An outline of the steps:
as §2

As to `CCN(C)S(=O)(=O)c1ccccc1NS(=O)(=O)c1nc2ncc(Cl)cn2n1` [Compound 132], the minimal effective concentration in [1] stood at 400 µg/mL.
`Cc1cc(C)n2nc(S(=O)(=O)Nc3ccccc3C(=O)c3ccccc3)nc2n1` [Compound 95]: the “% NH4-N Remaining After 2 Weeks Incubation” value in test [2] (0.06 ppm) amounted to 26%; in test [2] (0.25 ppm), 36%; in test [2] (1 ppm), 53%; in test [2] (4 ppm), 67%. In [1], the minimal effective concentration stood at 400 µg/mL.
As to `Cc1nc2nc(S(=O)(=O)Nc3ccccc3Cl)nn2c(C)c1Cl` [Compound 198], the “% NH4-N Remaining After 2 Weeks Incubation” value in test [2] (0.06 ppm) came to 22%; in [2] (0.25 ppm), 37%; in test [2] (1 ppm), 53%; in [2] (4 ppm), 74%. Also, the “observed effect (preemergence)” value in [1] is “stunting”. Moreover, the minimal effective concentration in test [1] turned out to be 400 µg/mL.
Take `C=CCSc1ccccc1NS(=O)(=O)c1nc2nc(C)cc(C)n2n1` [Compound 66]: the “% NH4-N Remaining After 2 Weeks Incubation” value in [2] (0.06 ppm) is 0%; in test [2] (0.25 ppm), 41%; in [2] (1 ppm) it was 66%; in [2] (4 ppm), 78%. Moreover, the minimal effective concentration in [1] was 400 µg/mL.
For the compound `CCN(C)S(=O)(=O)c1ccccc1NS(=O)(=O)c1nc2nc(C)cc(C)n2n1` [Compound 16], the “% NH4-N Remaining After 2 Weeks Incubation” value amounted to 0% in test [2] (0.01 ppm), 0% in test [2] (0.125 ppm), 26% in [2] (1 ppm) and 67% in [2] (10 ppm). In addition, in [1], the minimal effective concentration is 400 µg/mL.
For `Cc1cc(C)n2nc(S(=O)(=O)Nc3c(F)cccc3Oc3ccc(C(F)(F)F)cc3Cl)nc2n1` [Compound 98], the “% NH4-N Remaining After 2 Weeks Incubation” value in test [2] (0.06 ppm) came out at 0%; in [2] (0.25 ppm), 25%; in test [2] (1 ppm), 0%; in test [2] (4 ppm) it was 37%. In addition, in test [3], the minimal effective concentration worked out at 400 µg/mL.
For the compound `O=S(=O)(Nc1ccccc1F)c1nc2ncc(Cl)cn2n1` [Compound 133], in [1], the “observed effect (preemergence)” value is listed as “stunting” and the minimal effective concentration is 400 µg/mL.
In the case of `COc1cccc(C=NO)c1NS(=O)(=O)c1nc2nc(C)cc(C)n2n1` [Compound 71], the plant injury at 500 ppm amounted to 75% in the test on cotton; 70% in the test with rape; 35% in the test on soybean; 70% in the test on sugar beet; 0% with corn; 0% in the test on rice. Also, the plant injury at 500 ppm in the test on sorghum and in the test on wheat was 0% in each case. The pest or weed control at 500 ppm with cocklebur was determined as 0%; with jimsonweed, 60%; with annual morning glory, 0%; in the test on pigweed it was 0%; in the test on velvetleaf, 70%; in the test with barnyardgrass it was 0%. Further, the pest or weed control at 500 ppm in the test on crabgrass is 20%; with yellow foxtail, 0%; with johnson grass, 0%; in the test with wild oats, 0%; in the test with yellow nutsedge, 0%. Further, the “% NH4-N Remaining After 2 Weeks Incubation” value in test [2] (0.06 ppm) was 35%; in test [2] (0.25 ppm), 49%; in test [2] (1 ppm) it was 84%; in test [2] (4 ppm), 90%. Also, in [1], the minimal effective concentration turned out to be 400 µg/mL.
For the compound `CSc1cccc(NS(=O)(=O)c2nc3ncc(Cl)cn3n2)c1` [Compound 134], in test [1], the “observed effect (preemergence)” value is reported as “stunting” and the minimal effective concentration is 400 µg/mL.
Regarding `Cc1cc(C)n2nc(S(=O)(=O)Nc3c(Cl)cccc3-c3ccccc3)nc2n1` [Compound 63], the “% NH4-N Remaining After 2 Weeks Incubation” value in test [2] (0.06 ppm) was 6%; in [2] (0.25 ppm), 6%; in test [2] (1 ppm) it was 36%; in test [2] (4 ppm), 61%. Besides, the minimal effective concentration in test [3] was 5 µg/mL.
As to `Cc1cc(C)n2nc(S(=O)(=O)Nc3cc(C(F)(F)F)ccc3Cl)nc2n1` [Compound 52], the “% NH4-N Remaining After 2 Weeks Incubation” value amounted to 0% in test [2] (0.01 ppm), 39% in test [2] (0.1 ppm), 74% in test [2] (1 ppm) and 91% in [2] (10 ppm). Moreover, the minimal effective concentration in test [1] is 100 µg/mL.
With `Cc1cc(C)n2nc(S(=O)(=O)Nc3ccccc3C#N)nc2n1` [Compound 14], the “% NH4-N Remaining After 2 Weeks Incubation” value in test [2] (0.01 ppm) is recorded as 0%; in test [2] (0.1 ppm) it was 10%; in test [2] (1 ppm), 52%; in [2] (10 ppm) it was 77%. Further, in [1], the minimal effective concentration worked out at 400 µg/mL.
